pEC50: −log10 of the molar value. Read-outs that look alike come from different tables or passages of the source.
Tests used:
5HT2C receptors = target: T1, 5HT2C receptors (Homo sapiens, UniProt P28335); test: Human 5-HT2C functional assay in CHO-K1 cells (calcium flux, FLIPR); assay type: cell-based; design: expressed in transfected cells; host or cells: CHO-K1 cells
T1 sequence (P28335 33-458): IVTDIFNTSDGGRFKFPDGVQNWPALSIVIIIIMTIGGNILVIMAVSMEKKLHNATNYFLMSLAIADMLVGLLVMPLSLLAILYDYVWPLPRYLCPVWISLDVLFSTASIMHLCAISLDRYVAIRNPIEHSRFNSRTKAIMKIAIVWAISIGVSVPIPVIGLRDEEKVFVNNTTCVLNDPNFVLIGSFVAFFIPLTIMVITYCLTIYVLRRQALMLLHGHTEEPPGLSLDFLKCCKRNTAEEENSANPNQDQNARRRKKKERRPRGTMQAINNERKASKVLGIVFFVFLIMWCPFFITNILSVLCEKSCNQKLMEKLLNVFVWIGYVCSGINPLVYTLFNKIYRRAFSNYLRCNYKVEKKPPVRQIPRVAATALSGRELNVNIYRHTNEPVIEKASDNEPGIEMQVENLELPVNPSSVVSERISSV
Description: (§1) (iii) Human 5-HT2C and 5-HT2B Functional Assay in CHO-K1 Cells
(§2) CHO-K1 cells over-expressing 5HT2C or 5HT2B receptors were grown in 1272 cm^2 flasks to 70-80% confluency in UltraCHO media supplemented with 1% dialyzed fetal bovine serum (FBS), 250 μg/mL zeocin, 100 U/mL penicillin/streptomycin, and 400 μg/mL geneticin. The cells were dissociated from the flasks using 0.05% trypsin, resuspended in freezing media and stored in liquid nitrogen until use. Calcium flux experiments were done using frozen cells. The cells were diluted in media containing 1% dialyzed FBS and 100 U/mL penicillin/streptomycin and plated into 384-well poly-D-Lysine coated plates (15,000 cells/well). Then the plates were incubated overnight in a cell incubator at 37° C., 5% CO2. On the next day, the growth media was replaced with media without FBS and further incubated overnight. On day three, the changes in intracellular Ca^2+ were determined using calcium sensitive fluorescent dye, Ca4 (MDS Analytical Technologies, Sunnyvale, Calif.) by loading 15 μL of diluted dye with 2.5 mM probenecid into the cells containing media and incubated at room temperature for 60 minutes in dark.
(§3) Fluorescence measurements were read at 25° C. at an excitation wavelength of 480 nm and an emission wavelength of 530 nm in FLIPR (MDS). Baseline fluorescence was measured for the first 10 seconds and then 15 μL of 4× concentrations of serotonin/test compounds was added to the cell plate. The fluorescence intensity was captured every second for the first 1 minute followed by every 5 seconds for an additional 2 minutes. The increase in fluorescent response was determined and was normalized to the response of serotonin. The concentration response of compounds was done from a starting concentration of 10 μM, 1:10 dilution across 6 wells with a final dimethyl sulfoxide concentration of 0.2% and was fitted using a 4-parameter logistic equation. The concentration at which a compound exerts half its maximal effect was named as ‘effective concentration 50’ or ‘EC50’.
(§4) Emax is the maximum functional response or efficacy expressed as a percentage relative to the effect of serotonin.

5HT2B receptors = target: T2, 5HT2B receptors (Homo sapiens, UniProt P41595); test: Human 5-HT2B functional assay in CHO-K1 cells (calcium flux, FLIPR); assay type: cell-based
T2 construct: expressed in transfected cells; host or cells: CHO-K1 cells
Description: as §1, §2, §3, §4

[1] = CHO-K1 cells over-expressing 5HT2C, calcium flux; read-out: EC50 (μM), 5-HT2c Agonist Activity
[2] = CHO-K1 cells; percentage relative to the effect of serotonin; read-out: Emax (%), 5-HT2c Agonist Activity
[3] = CHO-K1 cells over-expressing 5HT2B, calcium flux; read-out: EC50 (μM), 5-HT2B Agonist Activity
[4] = CHO-K1 cells; percentage relative to the effect of serotonin; read-out: Emax (%), 5-HT2B Agonist Activity
[5] = CHO-K1, read-out: Emax (%), 5-HT2c Agonist Activity, CHO-K1 cells; percentage relative to the effect of serotonin
[6] = CHO-K1, read-out: Emax (%), 5-HT2B Agonist Activity

T2 sequence (P41595 whole entry): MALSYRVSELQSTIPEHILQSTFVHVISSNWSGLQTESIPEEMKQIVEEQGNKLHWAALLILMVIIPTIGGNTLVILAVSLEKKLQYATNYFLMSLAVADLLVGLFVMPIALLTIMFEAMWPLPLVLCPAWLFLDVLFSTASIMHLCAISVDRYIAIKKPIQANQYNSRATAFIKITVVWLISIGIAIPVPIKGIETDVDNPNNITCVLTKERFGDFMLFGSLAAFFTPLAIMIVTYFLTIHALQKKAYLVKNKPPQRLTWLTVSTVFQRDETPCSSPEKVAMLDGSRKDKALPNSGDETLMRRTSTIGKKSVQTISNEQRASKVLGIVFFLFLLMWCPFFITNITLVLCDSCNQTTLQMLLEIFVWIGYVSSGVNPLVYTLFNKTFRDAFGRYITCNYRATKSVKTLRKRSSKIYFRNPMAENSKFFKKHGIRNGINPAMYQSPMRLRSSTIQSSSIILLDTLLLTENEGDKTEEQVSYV

Row | SMILES | EC50 (5HT2C receptors; [1]) | Emax (5HT2C receptors; [2]) | EC50 (5HT2B receptors; [3]) | pEC50 (5HT2C receptors) | Emax (5HT2C receptors; [5]) | pEC50 (5HT2B receptors) | other results
1 | O=C1CC2CNCCN2c2cc(COc3ccccc3F)ccc2N1 (centres unmarked) [Example 113, 10-[(2-fluorophenoxy)methyl]-1,2,3,4,4a,5-hexahydropyrazino[1,2-a][1,5]-benzodiazepin-6(7H)-one] | 0.05 µM | > 120% | 0.2 µM | – | – | – | Emax (5HT2B receptors; [4]): 50%
2 | O=C1CC2CNCCN2c2cc(COc3cccc(F)c3)ccc2N1 (centres unmarked) [Example 114, 10-[(3-fluorophenoxy)methyl]-1,2,3,4,4a,5-hexahydropyrazino[1,2-a][1,5]benzodiazepin-6(7H)-one] | 0.05 µM | > 120% | 0.4 µM | – | – | – | Emax (5HT2B receptors; [4]): 30%
3 | O=C1CC2CNCCN2c2cc(COc3ccc(F)cc3)ccc2N1 (centres unmarked) [Example 115, 10-[(4-fluorophenoxy)methyl]-1,2,3,4,4a,5-hexahydropyrazino[1,2-a][1,5]benzodiazepin-6(7H)-one] | 0.2 µM | > 120% | > 10 µM | – | – | – | –
4 | O=C1C[C@H]2CNCCN2c2cc(-c3ccccc3F)ccc2N1 [Example 116, (4aS)-10-(2-fluorophenyl)-1,2,3,4,4a,5-hexahydropyrazino[1,2-a][1,5]benzodiazepin-6(7H)-one] | 0.008 µM | > 120% | 0.05 µM | – | – | – | Emax (5HT2B receptors; [4]): 30%
5 | CC(C)Oc1cccc(-c2ccc3c(c2)N2CCNC[C@@H]2CC(=O)N3)c1 [Example 117, (4aS)-10-(3-isopropoxyphenyl)-1,2,3,4,4a,5-hexahydropyrazino[1,2-a][1,5]benzodiazepin-6(7H)-one] | 0.001 µM | > 120% | > 10 µM | – | – | – | –
6 | O=C1C[C@H]2CNCCN2c2cc(OCCc3ccccc3F)ccc2N1 [Example 118, (4aS)-10-[2-(2-fluorophenyl)ethoxy]-1,2,3,4,4a,5-hexahydropyrazino[1,2-a][1,5]benzodiazepin-6(7H)-one] | 0.009 µM | > 120% | > 10 µM | – | – | – | –
7 | O=C1C[C@H]2CNCCN2c2cc(OC(F)F)ccc2N1 [Example 131, (4aS)-10-(difluoromethoxy)-1,2,3,4,4a,5-hexahydropyrazino[1,2-a][1,5]benzodiazepin-6(7H)-one] | 0.04 µM | 110% | 0.08 µM | – | – | – | Emax (5HT2B receptors; [4]): 20%
8 | CN1CCN2c3ccccc3OCC[C@H]2C1 [Example 132, (4aS)-3-methyl-2,3,4,4a,5,6-hexahydro-1H-pyrazino[2,1-d][1,5]benzoxazepine] | – | – | – | 8.15 | > 120% | < 5.00 | –
9 | Cc1ccc2c(c1)OCC[C@H]1CNCCN21 [Example 133, (4aS)-9-methyl-2,3,4,4a,5,6-hexahydro-1H-pyrazino[2,1-d][1,5]benzoxazepine] | – | – | – | 8.00 | 100% | < 5.00 | –
10 | COc1ccc2c(c1)OCC[C@H]1CNCCN21 [Example 134, (4aS)-9-methoxy-2,3,4,4a,5,6-hexahydro-1H-pyrazino[2,1-d][1,5]benzoxazepine] | – | – | – | – | – | – | Emax (%), 5-HT2c Agonist Activity (5HT2C receptors; CHO-K1 cells; percentage relative to the effect of serotonin): 100%; EC50 (5HT2C receptors; read-out: EC50 (μM), 5-HT2c Agonist Activity; CHO-K1 cells over-expressing 5HT2C, calcium flux): 0.05 µM; EC50 (5HT2B receptors; read-out: EC50 (μM), 5-HT2B Agonist Activity; CHO-K1 cells over-expressing 5HT2B, calcium flux): > 10 µM
11 | Nc1ccc2c(c1)OCC[C@H]1CNCCN21 [Example 135, (4aS)-2,3,4,4a,5,6-hexahydro-1H-pyrazino[2,1-d][1,5]benzoxazepin-9-amine] | 1 µM | – | > 10 µM | – | 80% | – | –
12 | Fc1ccc2c(c1)OCC[C@H]1CNCCN21 [Example 136, (4aS)-9-fluoro-2,3,4,4a,5,6-hexahydro-1H-pyrazino[2,1-d][1,5]benzoxazepine] | – | – | – | 8.70 | > 120% | 7.00 | Emax (5HT2B receptors; [6]): 20%
13 | Cc1ccc2c(c1)N1CCNC[C@@H]1CCO2 [Example 137, (4aS)-10-methyl-2,3,4,4a,5,6-hexahydro-1H-pyrazino[2,1-d][1,5]benzoxazepine] | – | – | – | 8.70 | > 120% | 7.30 | Emax (5HT2B receptors; [6]): 60%
14 | Clc1cccc2c1OCC[C@H]1CNCCN21 [Example 138, (4aS)-8-chloro-2,3,4,4a,5,6-hexahydro-1H-pyrazino[2,1-d][1,5]benzoxazepine] | – | – | – | 9.15 | > 120% | < 5.00 | –
15 | Fc1cccc2c1OCC[C@H]1CNCCN21 [Example 139, (4aS)-8-fluoro-2,3,4,4a,5,6-hexahydro-1H-pyrazino[2,1-d][1,5]benzoxazepine] | – | – | – | 9.40 | > 120% | 7.22 | Emax (5HT2B receptors; [6]): 20%
16 | Clc1ccc2c(c1)N1CCNC[C@@H]1CCO2 [Example 140, (4aS)-10-chloro-2,3,4,4a,5,6-hexahydro-1H-pyrazino[2,1-d][1,5]-benzoxazepine] | – | – | – | 9.30 | > 120% | 7.52 | Emax (5HT2B receptors; [6]): 60%
17 | O=C1CC2CNCCN2c2cc(/C=C/c3ccccc3C(F)(F)F)ccc2N1 (centres unmarked) [Example 142, 10-{(E)-2-[2-(trifluoromethyl)phenyl]vinyl}-1,2,3,4,4a,5-hexahydropyrazino[1,2-a][1,5]benzodiazepin-6(7H)-one] | 0.08 µM | > 120% | > 10 µM | – | – | – | –
18 | O=C1CC2CNCCN2c2cc(/C=C/c3cc(F)cc(F)c3)ccc2N1 (centres unmarked) [Example 143, 10-[(E)-2-(3,5-difluorophenyl)vinyl]-1,2,3,4,4a,5-hexahydropyrazino[1,2-a][1,5]benzodiazepin-6(7H)-one] | 0.02 µM | > 120% | 1 µM | – | – | – | Emax (5HT2B receptors; [4]): 60%
19 | O=C1CC2CNCCN2c2cc(CCc3ccccc3F)ccc2N1 (centres unmarked) [Example 144, 10-[2-(2-fluorophenyl)ethyl]-1,2,3,4,4a,5-hexahydropyrazino[1,2-a][1,5]benzodiazepin-6(7H)-one] | 0.002 µM | > 120% | > 10 µM | – | – | – | Emax (5HT2B receptors; [4]): 50%
20 | O=C1CC2CNCCN2c2cc(CCc3cccc(F)c3)ccc2N1 (centres unmarked) [Example 145, 10-[2-(3-fluorophenyl)ethyl]-1,2,3,4,4a,5-hexahydropyrazino[1,2-a][1,5]benzodiazepin-6(7H)-one] | 0.006 µM | > 120% | > 10 µM | – | – | – | –
21 | O=C1CC2CNCCN2c2cc(CCc3ccccc3C(F)(F)F)ccc2N1 (centres unmarked) [Example 146, 10-{2-[2-(trifluoromethyl)phenyl]ethyl}-1,2,3,4,4a,5-hexahydropyrazino[1,2-a][1,5]benzodiazepin-6(7H)-one] | 0.005 µM | > 120% | > 10 µM | – | – | – | –
22 | O=C1CC2CNCCN2c2cc(CCc3cc(F)cc(F)c3)ccc2N1 (centres unmarked) [Example 147, 10-[2-(3,5-difluorophenyl)ethyl]-1,2,3,4,4a,5-hexahydropyrazino[1,2-a][1,5]benzodiazepin-6(7H)-one] | 0.01 µM | > 120% | > 10 µM | – | – | – | –
23 | O=C1C[C@H]2CNCCN2c2cccc(Cl)c2N1 [Example 148, (4aS)-8-chloro-1,2,3,4,4a,5-hexahydropyrazino[1,2-a][1,5]benzodiazepin-6(7H)-one] | – | – | – | 8.15 | > 120% | < 5.00 | –
24 | O=C1CC2CNCCN2c2cc(OCc3ccccc3)ccc2N1 (centres unmarked) [Example 149, 10-(benzyloxy)-1,2,3,4,4a,5-hexahydropyrazino[1,2-a][1,5]benzodiazepin-6(7H)-one] | 0.02 µM | > 120% | 1 µM | – | – | – | Emax (5HT2B receptors; [4]): 30%
25 | O=C1CC2CNCCN2c2ncccc2N1 (centres unmarked) [Example 150, 7,7a,8,9,10,11-hexahydropyrazino[1,2-d]pyrido[3,2-b][1,4]diazepin-6(5H)-one] | 0.2 µM | – | > 10 µM | – | > 120% | – | –
